This note sets out measurements from patent US20200385370A1 (SYNBLIA THERAPEUTICS, INC., priority 2017, published 2020).

Each structure is given as a SMILES string. Some results are limits rather than exact numbers.

This test addresses T1, GST tagged IRAK4 (Homo sapiens, UniProt Q9NWZ3).
T1 construct: purchased SignalChem
T1 sequence (Q9NWZ3 1-460): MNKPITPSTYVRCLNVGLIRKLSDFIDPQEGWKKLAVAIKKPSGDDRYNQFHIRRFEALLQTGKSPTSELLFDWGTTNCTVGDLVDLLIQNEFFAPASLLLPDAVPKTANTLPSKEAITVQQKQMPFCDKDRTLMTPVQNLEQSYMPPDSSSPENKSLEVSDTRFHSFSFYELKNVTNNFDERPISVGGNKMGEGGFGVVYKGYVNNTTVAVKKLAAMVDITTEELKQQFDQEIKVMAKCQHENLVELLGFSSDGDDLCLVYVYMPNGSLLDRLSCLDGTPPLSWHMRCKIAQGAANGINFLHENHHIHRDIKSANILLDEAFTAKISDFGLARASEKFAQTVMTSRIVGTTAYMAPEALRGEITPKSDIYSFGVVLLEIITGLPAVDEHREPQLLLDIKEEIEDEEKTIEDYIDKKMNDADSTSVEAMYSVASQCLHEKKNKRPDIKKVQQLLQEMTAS
The test can be described thus: IRAK4 kinase activity assay, IMAP fluorescence polarization, phosphorylation of fluorescently labeled peptide. The following applies: 0.5 nM GST tagged IRAK4, 100 nM peptide substrate, 100 μM ATP, 30 minutes at 25° C. In kind it is biochemical. On the procedure: The kinase activity of IRAK4 is measured by its ability to phosphorylate a fluorescently labeled synthetic peptide in the presence of ATP. The assay format is based on the Immobilized Metal Ion Affinity-Based Fluorescence Polarization (IMAP) platform developed by Molecular Devices. Briefly, reaction mixture (20 μL) contains the assay buffer (20 mM Tris.Cl, pH 7.2, 1 mM MgCl2, 1 mM DTT, and 0.02% Tween 20), 0.5 nM GST tagged IRAK4 (SignalChem), 100 nM peptide substrate and 100 μM ATP. The amino acid sequence of the peptide substrate is 5FAM-RKRQGSVRRRVH-COOH (Cat #: RP7030, Molecular Devices). The reaction is initiated by adding substrates ATP and RP7030, and terminated by adding Stop solution (60 μL) after 30 minutes of incubation at 25° C. The Stop solution is prepared with IMAP Progressive Reagent A/B and Binding reagent according to vender's instruction. The extent of phosphorylation of the peptide is measured by changes in Fluorescence Polarization (FP) resulting from binding of phosphate group on the peptide with immobilized metal coordination complexes on the nanoparticles included in the Stop solution. Errors in the calculated IRAK4 IC50 values range from 4-12% from duplicate experiments.
On the technique in general: Polarisation of emitted light reports the rotation of a fluorescent probe.
As for `NC(=O)c1cc2ccnc3c2cc1OCCOCCN1C(=O)CCC1CO3` (centres unmarked) [Compound IX, 4^5-oxo-2,7,10-trioxa-1(1,7)-isoquinolina-4(2,1)-pyrrolidinacyclodecaphane-1^6-carboxamide], the IC50 (in general, the point on the concentration scale where inhibition reaches its midpoint) lay in the range of 3 to 10 µM.
Then `COc1cc2c(OC[C@@H]3CCC(=O)N3)nccc2cc1C(N)=S` [Compound XI, (S)-7-methoxy-1-((5-oxopyrrolidin-2-yl)methoxy)isoquinoline-6-carbothioamide], with 0.5 to 3 µM.
Then `NC(=O)c1cc2ccnc3c2cc1OCCOCC(=O)N1CC(CO3)C1` [Compound XIV, 5-oxo-2,7,10-trioxa-1(1,7)-isoquinolina-4(3,1)-azetidinacyclodecaphane-16-carboxamide], with 0.5 to 3 µM; and `COc1cc2c(N3CCC[C@H](N)C3)nccc2cc1C(N)=O` [Compound XX, (S)-1-(3-aminopiperidin-1-yl)-7-methoxyisoquinoline-6-carboxamide], with below 0.5 µM.
To `COc1cc2c(N3CCC[C@H](O)C3)nccc2cc1C(N)=O` [Compound XXI, (S)-1-(3-hydroxypiperidin-1-yl)-7-methoxyisoquinoline-6-carboxamide] belongs 0.5 to 3 µM; to `CC#Cc1cnc(NC[C@@H]2CCC(=O)N2)c2cc(OC)c(C(N)=O)cc12` [Compound XXII, (S)-7-methoxy-1-(((5-oxopyrrolidin-2-yl)methyl)amino)-4-(prop-1-yn-1-yl) isoquinoline-6-carboxamide], below 0.5 µM; to `CCC[C@@H]1CC(=O)N2COCCOc3cc4c(nccc4cc3C(N)=O)OC[C@H]12` [Compound XXIV, (4^2S,4^3R)-4^5-oxo-4^3-propyl-2,6,9-trioxa-1 (1,7)-isoquinolina-4 (2,1)-pyrrolidinacyclononaphane-1^6-carboxamide], 0.5 to 3 µM.
As to `COc1cc2c(N[C@@H]3CCCNC3)nccc2cc1C(N)=O` [Compound XXIX, (R)-7-methoxy-1-(piperidin-3-ylamino) isoquinoline-6-carboxamide], the IC50 was 0.5 to 3 µM.
To `C[C@@H]1CC(=O)N2COCCOc3cc4c(nccc4cc3C(N)=O)OC[C@H]12` [Compound XXV, (4^2S, 4^3R)-4^3-methyl-4^5-oxo-2,6,9-trioxa-1 (1,7)-isoquinolina-4 (2,1)-pyrrolidinacyclononaphane-1^6-carboxamide] belongs below 0.5 µM; to `COc1cc2c(N3CCC(C)(CN)CC3)nccc2cc1C(N)=O` [Compound XXVI, 1-(4-(aminomethyl)-4-methylpiperidin-1-yl)-7-methoxyisoquinoline-6-carboxamide], 0.5 to 3 µM.
To `COc1cc2c(N3CCC(N)CC3)nccc2cc1C(N)=O` [Compound XXVII, 1-(4-aminopiperidin-1-yl)-7-methoxyisoquinoline-6-carboxamide] belongs 0.5 to 3 µM; to `CC[C@@H]1CC(=O)N[C@@H]1CNc1nccc2cc(C(N)=O)c(OC)cc12` [Compound XXVIII, 1-((((2S, 3R)-3-ethyl-5-oxopyrrolidin-2-yl)methyl)amino)-7-methoxyisoquinoline-6-carboxamide], below 0.5 µM.
For `COc1cc2c(N[C@@H]3CCCN(C(=O)CC#N)C3)nccc2cc1C(N)=O` [Compound XXX, (R)-1-((1-(2-cyanoacetyl)piperidin-3-yl)amino)-7-methoxyisoquinoline-6-carboxamide], the IC50 was in the range of 3 to 10 µM.
As for `COc1cc2c(S[C@@H]3CCCN(C(=O)CC#N)C3)nccc2cc1C(N)=O` [Compound XXXI, (R)-1-((1-(2-cyanoacetyl)piperidin-3-yl)thio)-7-methoxyisoquinoline-6-carboxamide], the IC50 lay in the range of 3 to 10 µM.
To `COc1cc2c(N[C@@H]3CCNC3)nccc2cc1C(N)=O` [Compound XXXII, (R)-7-methoxy-1-(pyrrolidin-3-ylamino)isoquinoline-6-carboxamide] belongs 0.5 to 3 µM.
To `COc1cc2c(OCC3CCC(=O)N3)nccc2cc1OC(N)=O` (centres unmarked) [II, 7-methoxy-1-((5-oxopyrrolidin-2-yl)methoxy)isoquinolin-6-yl carbamate] belongs 3 to 10 µM; to `COc1cc2c(OCC3CCC(=O)N3)nccc2cc1C(=O)NO` (centres unmarked) [IV, N-hydroxy-7-methoxy-1-((5-oxopyrrolidin-2-yl)methoxy) isoquinoline-6-carboxamide], 3 to 10 µM.
To `COc1cc2c(NCC3CCC(=O)N3)nccc2cc1C(N)=O` (centres unmarked) [VII, 7-methoxy-1-(((5-oxopyrrolidin-2-yl)methyl)amino) isoquinoline-6-carboxamide] belongs 0.5 to 3 µM.
`COc1cc2c(OC[C@@H]3CCC(=O)N3)nccc2cc1C(=O)S` [XIII, (S)-7-methoxy-1-((5-oxopyrrolidin-2-yl)methoxy) isoquinoline-6-carbothioic S-acid] gave an IC50 of 0.5 to 3 µM.
The compound `CC[C@@H]1CC(=O)N2COCCOc3cc4c(nccc4cc3C(N)=O)OC[C@H]12` [XIX, (4^2S, 4^3R)-4^3-ethyl-4^5-oxo-2,6,9-trioxa-1 (1,7)-isoquinolina-4 (2,1)-pyrrolidinacyclononaphane-1^6-carboxamide] showed an IC50 of 0.5 to 3 µM.
Then `NC(=O)c1cc2ccnc3c2cc1OCCOCN1C(=O)OCC1CO3` (centres unmarked) [XVII, 1^2-oxo-3,5,8-trioxa-1(4,3)-oxazolidina-4(1,7)-isoquinolinacyclononaphane-4^6-carboxamide], with 0.5 to 3 µM; and `NC(=O)c1cc2ccnc3c2cc1OCCOCN1C(=O)CC[C@H]1CO3` [XVIII, (S)-4^5-oxo-2,6,9-trioxa-1(1,7)-isoquinolina-4(2,1)-pyrrolidinacyclononaphane-1^6-carboxamide], with below 0.5 µM; and `COc1cc2c(ccn2[C@H]2CC[C@H](N)C2)cc1C(N)=O` [XXIII, 1-((1S, 3S) 3-aminocyclopentyl)-6-methoxy-1H-indole-5-carboxamide], with 0.5 to 3 µM.
Compound `CC#Cc1cnc(N2CCC[C@H](N)C2)c2cc(OC)c(C(N)=O)cc12` [XXXIV, (S)-1-(3-aminopiperidin-1-yl)-7-methoxy-4-(prop-1-yn-1-yl)soquinoline-6-carboxamide] gave an IC50 below 0.5 µM.
On to `COc1cc2c(N3CCC[C@H](N)C3)ncc(Br)c2cc1C(N)=O` [XXXV, (S)-1-(3-aminopiperidin-1-yl)-4-bromo-7-methoxyisoquinoline-6-carboxamide], for which the IC50 lay within 0.5 to 3 µM.
Then `COc1cc2c(N3CCC[C@H](N)C3)ncc(C#N)c2cc1C(N)=O` [XXXVI, (S)-1-(3-aminopiperidin-1-yl)-4-cyano-7-methoxyisoquinoline-6-carboxamide], with 0.5 to 3 µM.
